# Experimental data published in patent US6432662B1, “Assay of peroxidase activity” (Pierce Chemical Company, priority 1999, dated 2002).
# Legend:
# [1] = molecular target: SA-HRP (Armoracia rusticana, UniProt P00433); test: Dot blot application of water soluble azine enhancers (Example 8); type: biochemical, horseradish
# [2] = molecular target: horseradish peroxidase labeled streptavidin (SA-HRP) (Armoracia rusticana, UniProt P00433); test: Blot application comparing enhancer working solutions (Example 7); type: biochemical; settings: after the 30 minute reexposure, enhancer: 1c […] (present invention) or 52 μM (low), 1b 52 μM, 3 13.5 μM
# [3] = 50 μM enhancer with 1 mM Sodium Luminol
# [4] = […] enhancer with 5 mM Sodium Luminol
# horseradish peroxidase labeled streptavidin (SA-HRP), sequence (P00433 31-338 limits assumed): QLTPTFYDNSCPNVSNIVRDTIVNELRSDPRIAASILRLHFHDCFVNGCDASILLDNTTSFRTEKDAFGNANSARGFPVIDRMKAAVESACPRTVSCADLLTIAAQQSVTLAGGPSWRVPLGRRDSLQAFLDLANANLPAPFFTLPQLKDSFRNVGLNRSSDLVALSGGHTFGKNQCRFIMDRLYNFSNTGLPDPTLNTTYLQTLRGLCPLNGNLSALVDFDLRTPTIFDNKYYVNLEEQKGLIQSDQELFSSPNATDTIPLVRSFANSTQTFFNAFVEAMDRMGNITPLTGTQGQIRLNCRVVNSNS
# horseradish peroxidase labeled streptavidin (SA-HRP), sequence (P22629 25-183 partner): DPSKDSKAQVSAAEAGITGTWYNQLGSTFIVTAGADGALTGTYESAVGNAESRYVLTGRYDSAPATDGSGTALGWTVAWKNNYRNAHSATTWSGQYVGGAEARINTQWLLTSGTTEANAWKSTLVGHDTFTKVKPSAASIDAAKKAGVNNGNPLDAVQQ
# SA-HRP, sequence (P00433 31-338 limits assumed): as the sequence (P00433 31-338 limits assumed) above
# SA-HRP, sequence (P22629 25-183 partner): as the sequence (P22629 25-183 partner) above
Substance,"Net Relative Intensity at 10 pg SA-HRP [1, 3]","Net Relative Intensity at 100 pg SA-HRP [1, 3]","Net Relative Intensity at 10 pg SA-HRP [1, 4]","Net Relative Intensity at 100 pg SA-HRP [1, 4]",Relative Intensity 2 pg SA-HRP [2],Relative Intensity 5 pg SA-HRP [2],Relative Intensity 20 pg SA-HRP [2]
2-chloro-10 (3 trimethyl amino propyl)-phenothiazonan bromide [Azine Enhancer 1d],0,0,"225,632","311,048",–,–,–
Phenylindophenol/indophenol [Phenolic Enhancer 3],–,–,–,–,0,"106,776","598,072"
